Test results reported in the NIST ThermoML archive (doi:10.1021/je020185k).

Legend:
[1] = Liquid; for mass density: 298.15 K, 101.33 kPa
[2] = xn = mol fraction of the nth substance listed; details: 298.15 K, 101.3 kPa, Liquid

C1COCCO1 [1,4-dioxane]
[1]
Details | Normal boiling temperature [°C] | mass density [kg/m3]
– | 101.37 | 1027.88

CC(C)CCl [1-chloro-2-methylpropane]
Details | mass density [kg/m3]
[1] | 871.13

Details | Normal boiling temperature [°C]
[1], Ebulliometric method (Recirculating still) | 68.90

CC(C)CCl [1-chloro-2-methylpropane] + C1COCCO1
[2]
Details | mass density [kg/m3]
x2 = 0.0529 | 877.81
x2 = 0.1009 | 883.95
x2 = 0.2001 | 896.98
x2 = 0.3003 | 910.79
x2 = 0.3957 | 924.5
x2 = 0.5022 | 940.58
x2 = 0.5945 | 955.19
x2 = 0.7005 | 972.78
x2 = 0.7926 | 988.8
x2 = 0.8978 | 1008.04
x2 = 0.9371 | 1015.61

CCCCCl [1-chlorobutane]
Details | mass density [kg/m3]
[1] | 880.69

Details | Normal boiling temperature [°C]
[1], Ebulliometric method (Recirculating still) | 78.37

CCCCCl [1-chlorobutane] + C1COCCO1
[2]
Details | mass density [kg/m3]
x2 = 0.0422 | 885.61
x2 = 0.0947 | 891.8
x2 = 0.2055 | 905.35
x2 = 0.2766 | 914.45
x2 = 0.4083 | 932.02
x2 = 0.4852 | 942.87
x2 = 0.6082 | 961.08
x2 = 0.6587 | 968.92
x2 = 0.7939 | 990.92
x2 = 0.894 | 1008.37
x2 = 0.9509 | 1018.71

CC(C)(C)Cl [2-chloro-2-methylpropane]
Details | mass density [kg/m3]
[1] | 836.45

Details | Normal boiling temperature [°C]
[1], Ebulliometric method (Recirculating still) | 50.73

CC(C)(C)Cl [2-chloro-2-methylpropane] + C1COCCO1
[2]
Details | mass density [kg/m3]
x2 = 0.0563 | 845.77
x2 = 0.1059 | 853.89
x2 = 0.2019 | 870.2
x2 = 0.3134 | 889.71
x2 = 0.4148 | 908.22
x2 = 0.5097 | 926.46
x2 = 0.6071 | 945.55
x2 = 0.7113 | 966.4
x2 = 0.8 | 984.5
x2 = 0.9062 | 1006.81
x2 = 0.9554 | 1017.73

CCC(C)Cl (centres undefined) [2-chlorobutane]
Details | mass density [kg/m3]
[1] | 867.4

Details | Normal boiling temperature [°C]
[1], Ebulliometric method (Recirculating still) | 68.11

CCC(C)Cl (centres undefined) [2-chlorobutane] + C1COCCO1
[2]
Details | mass density [kg/m3]
x2 = 0.0522 | 874.11
x2 = 0.0886 | 878.88
x2 = 0.1892 | 892.48
x2 = 0.2923 | 907.06
x2 = 0.3647 | 917.71
x2 = 0.4928 | 937.42
x2 = 0.6155 | 957.41
x2 = 0.7149 | 974.47
x2 = 0.8019 | 990.07
x2 = 0.9068 | 1009.72
x2 = 0.941 | 1016.33
